Patent publication US10849904B2, “Methods for treatment of retinal disease by photoreceptor gene expression modulation” (University of Washington, priority 2015, dated 2020)
Entries after “also recorded” stand apart in the source; their conditions may differ.

Assays:
Assay type in all cases: cell-based
[1] = tested on: intact retinas from P12 wild type mice; experiment: P12 mouse retinal explant culture, qPCR for rod gene expression; settings: P12 explants; for dose-response, Nrl, Nr2e3, and Rho expression: 2-3 days; for relative rhodopsin (Rho) expression: 1 μM, 2 days
Description: To identify functional Nr2e3 antagonists, compounds were cheminformatically searched and structural analogs of a putative Nr2e3 interacting compound with unknown function were collected. See FIGS. 2 and 4 for the structures of the compounds. The collected compounds were then screened in a physiologically relevant primary culture assay using intact retinas from postnatal day 12-13 (P12-13) C57BL/6 mice for suppression of Rho expression (See FIG. 6A). After a 2 day culture period with media containing DMSO or compounds at 1 μM, the retinas were collected and assessed Rho expression by qPCR. Rho was chosen because it is a well-described target of Nr2e3 in rod photoreceptors. […] This analysis also provided an initial structure-activity relationship.
(§1) Nr2e3 loss-of-function mutations lead to a reduction in rod gene expression. To determine whether the same was true for PR1 (FIG. 6D), explant cultures of P12 retina as above were treated and assayed for other rod photoreceptor genes. After 2 days in culture, PR1 decreased the expression of the rod specific genes Nrl, Nr2e3, Rho, Gnat1, and Pde6b compared to DMSO treatment by qPCR analysis (FIG. 6C). […] To determine the dose-response relationship between PR1 concentration and expression of rod genes, retinas from P12 mice were explanted in media containing DMSO or 0.1, 1, 5, or 10 μM PR1 for 2-3 days and assayed Nrl, Nr2e3, and Rho expression by qPCR. […] PR1 was tested to determine whether it could cause a reduction in Rho expression in human rod photoreceptors as well. Pairs of 113 day post-conception retinas were explanted in media with DMSO or 10 μM PR1 for 7 or 23 days. After 7 and 23 days in culture, PR1 decreased the expression of Rho compared to DMSO treatment (FIG. 6F), similar to the effect observed in mouse retinal explants.
Intact retinas without RPE from mice of various strains and ages as indicated were explanted on 0.4 μm pore tissue culture inserts (Millipore) as previously described (Ueki, Y., et al., P53 is required for the developmental restriction in Muller glial proliferation in mouse retina. Glia, 2012. 60(10): p. 1579-89; Ueki, Y., et al., A transient wave of BMP signaling in the retina is necessary for Muller glial differentiation. Development, 2015. 142(3): p. 533-43. Full media (DMEM/F12 (1:1) containing 1% dialyzed FBS, 1% Pen Strep, 0.3% D+ glucose, 2% B27, and 1% N2) changes were performed every other day and small molecules were used at 0.1 μM to 10 μM. Where indicated, EdU (Invitrogen) was included in the media at 5 μg/mL and visualized by staining with the Click-iT EdU Alexa Fluor kit (Thermo Fisher Scientific). For human retinal explant cultures, tissue from 113 day post-conception fetuses was obtained from the University of Washington Birth Defects Laboratory and explanted on 0.4 μm pore tissue culture inserts (Millipore) in media (Neurobasal A with 1% FBS, 1% Pen Strep, 1% N2, 1% B27) containing 10 μM Photoregulin1 or an equal volume of DMSO.
(§2) RNA was isolated using TRIzol (Invitrogen) and cDNA was synthesized using the iScript cDNA synthesis kit (Bio-Rad) following an intervening DNase treatment with RQ1 RNase-free DNase (Promega). SSO Fast (Bio-Rad) was used for quantitative real-time PCR. For analysis, values were normalized to Gapdh and ΔΔCt between DMSO and compound-treated samples was expressed as percent of DMSO treated controls (100*2^ΔΔCt). Two-way Student's t-tests were performed on ΔCt values.

[2] = tested on: Human retinal explants from 113 day post-conception fetuses; experiment: Human fetal retinal explant culture, qPCR for RHO expression; settings: 10 μM, vs DMSO
Method: as §1, with “After 7 and 23 days in culture, PR1 decreased the expression of Rho compared to DMSO treatment (FIG. 6F), similar to the effect observed in mouse retinal explants.” left out
as §2, with “Two-way Student's t-tests were performed on ΔCt values.” left out

rhodopsin promoter = experiment: Dual luciferase rhodopsin promoter reporter assay in HEK293T cells; settings: 10 μM, 2 days
Description: Nr2e3, Crx, and Nrl are known to activate rod gene expression by forming a complex at the promoters of rod genes. To test whether PR1 might interfere with this complex, a luciferase reporter assay was used. For this assay, the rhodopsin promoter driving firefly luciferase was co-transfected with Nrl, Nr2e3, or Crx or all of these transcription factors together into HEK293T cells. A large synergy in the activation of the rhodopsin reporter was found with the combination of these three transcription factors (FIG. 6G).
HEK293T cells were transfected with 1 μg of the luciferase reporter BR-225Luc, 1 ng of the control pRL-CMV (Promega) and 100 ng of hNRL-pCMVSport6 (Open Biosystems), hCRX-pCMVSport6 (Open Biosystems), or hNR2E3-pcDNA3.1/HisC in 24 well plates using Lipofectamine 3000 reagent (Thermo Fisher Scientific). Transfection reagents were removed the following day and replaced with media containing DMSO or 10 μM PR1 for 2 days. Cells were lysed and firefly and renilla luciferase activity was measured with the Dual-Luciferase Reporter Assay System (Promega) using a 1420 Multilabel Victor3V plate reader.

Which results are given for `Cc1cc(C)cc(NC(=O)CCc2nc3sc4c(c3c(=O)[nH]2)CCCC4)c1` [PR1, N-(3,5-dimethylphenyl)-3-(4-oxo-5,6,7,8-tetrahydro-3H-[1]benzothiolo[2,3-d]pyrimidin-2-yl)propanamide]?
dose-response, Nrl, Nr2e3, and Rho expression ([1]; 0.1 uM): Some effect; relative rhodopsin (Rho) expression ([1]; vs DMSO): substantially decrease Rho expression; also recorded: decreased; relative rhodopsin (Rho) expression ([1]; vs DMSO, listed as CA88): reducing rhodopsin expression; Crx expression ([1]; 2 days in culture, vs DMSO): did not significantly decrease; Gnat1 expression ([1]; 2 days in culture, vs DMSO): decreased; Gnb1 expression ([1]; 2 days in culture, vs DMSO): did not significantly decrease; Nr2e3 expression ([1]; 2 days in culture, vs DMSO): decreased; Nrl expression ([1]; 2 days in culture, vs DMSO): decreased; Pde6b expression ([1]; 2 days in culture, vs DMSO): decreased; dose-response, Nrl, Nr2e3, and Rho expression ([1]; higher concentrations (1, 5, or 10 μM)): statistically significant reductions; Rho expression ([2]; 7 days in culture): decreased; Rho expression ([2]; 23 days in culture): decreased; activation of the rhodopsin promoter reporter (rhodopsin promoter; HEK293T transfected with Crx and Nrl): large reduction; activation of the rhodopsin promoter reporter (rhodopsin promoter; HEK293T transfected with Nr2e3, Crx and Nrl): large reduction
